The values below come from publication PMC3493272, “CYP98A22, a phenolic ester 3’-hydroxylase specialized in the synthesis of chlorogenic acid, as a new tool for enhancing the furanocoumarin concentration in Ruta graveolens” (BMC Plant Biology, 2012).

Common to all, as to type: biochemical
The target in assay [1] is T1, CYP98A3 (Arabidopsis thaliana, UniProt O22203).
T1 construct: full-length, untagged; transient expression in Nicotiana benthamiana leaves with TBSV P19, leaf microsomes (also yeast WAT11 microsomes)
T1 sequence (O22203 1-508): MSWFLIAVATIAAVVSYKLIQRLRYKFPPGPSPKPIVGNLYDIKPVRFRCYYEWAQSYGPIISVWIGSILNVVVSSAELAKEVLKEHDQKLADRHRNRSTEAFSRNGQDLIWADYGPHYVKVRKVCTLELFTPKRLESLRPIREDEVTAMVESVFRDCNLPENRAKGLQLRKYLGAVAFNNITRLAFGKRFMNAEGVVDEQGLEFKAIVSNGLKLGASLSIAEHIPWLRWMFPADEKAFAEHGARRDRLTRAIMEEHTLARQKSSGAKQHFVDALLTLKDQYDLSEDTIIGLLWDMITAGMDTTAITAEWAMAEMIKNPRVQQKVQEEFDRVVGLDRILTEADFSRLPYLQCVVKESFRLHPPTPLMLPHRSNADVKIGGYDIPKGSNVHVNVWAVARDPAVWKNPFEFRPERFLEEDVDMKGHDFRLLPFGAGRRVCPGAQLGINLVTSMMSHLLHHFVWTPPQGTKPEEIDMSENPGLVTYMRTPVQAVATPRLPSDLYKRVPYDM
The assay can be described thus: HPLC and LC-MS of caffeoyl quinate formed by plant microsomes. To be noted: 100 μM substrate; 0.2 mM NADPH; pH 7.0; 28 °C; microsomes from N. benthamiana expressing the enzyme.

The target in assay [2] is T2, CYP98A22 (Ruta graveolens, UniProt H9LJF9).
T2 construct: full-length, 508 residues, untagged; transient expression in Nicotiana benthamiana leaves with TBSV P19, leaf microsomes
The assay can be described thus: LC-MS of caffeoyl quinate formed by plant microsomes. To be noted: 0.2 mM NADPH; 20 mM phosphate pH 7.0; 28 °C; 30 min; microsomes from N. benthamiana expressing the enzyme. An excerpt:
LC-MS of caffeoyl quinate formed by plant microsomes on CYP98A22

Assay [3] addresses T2, CYP98A22. The assay can be described thus: LC-MS of caffeoyl shikimate formed by plant microsomes. Particulars: 0.2 mM NADPH; 20 mM phosphate pH 7.0; 28 °C; 30 min; microsomes from N. benthamiana expressing the enzyme. The text has this:
LC-MS of caffeoyl shikimate formed by plant microsomes on CYP98A22

The target in assay [4] is T1, CYP98A3. The assay can be described thus: HPLC and LC-MS of caffeoyl shikimate formed by plant microsomes. To be noted: 100 μM substrate; 0.2 mM NADPH; pH 7.0; 28 °C; microsomes from N. benthamiana expressing the enzyme.

T2 sequence (H9LJF9 entry or part of it): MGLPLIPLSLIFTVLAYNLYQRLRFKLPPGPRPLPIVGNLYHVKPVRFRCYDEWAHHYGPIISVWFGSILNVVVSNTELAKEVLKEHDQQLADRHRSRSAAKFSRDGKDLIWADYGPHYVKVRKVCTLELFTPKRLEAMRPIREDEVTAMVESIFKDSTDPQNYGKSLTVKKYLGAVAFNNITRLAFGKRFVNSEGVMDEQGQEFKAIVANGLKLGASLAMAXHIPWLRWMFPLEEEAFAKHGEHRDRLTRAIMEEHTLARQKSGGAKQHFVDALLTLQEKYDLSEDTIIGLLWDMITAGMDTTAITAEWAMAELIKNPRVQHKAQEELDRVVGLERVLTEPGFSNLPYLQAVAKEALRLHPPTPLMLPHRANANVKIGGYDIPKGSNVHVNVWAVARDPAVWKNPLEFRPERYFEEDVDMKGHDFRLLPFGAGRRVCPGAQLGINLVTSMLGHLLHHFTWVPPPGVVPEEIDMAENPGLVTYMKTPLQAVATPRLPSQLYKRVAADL

Broadly, the Km is the concentration of substrate that gives half-maximal velocity. Consider `O=C(/C=C/c1ccc(O)cc1)O[C@@H]1C[C@](O)(C(=O)O)C[C@@H](O)[C@H]1O` [p-coumaroyl quinate], for which the “HPLC and LC-MS of caffeoyl quinate formed by plant microsomes” value in assay [1] was “both p-coumaroyl quinate and p-coumaroyl shikimate were hydroxylated to their caffeic counterparts”. Moreover, the Km in assay [2] is 7 ± 5 µM.
For `O=C(/C=C/c1ccc(O)cc1)O[C@@H]1CC(C(=O)O)=C[C@@H](O)[C@H]1O` [p-coumaroyl shikimate], the Km in assay [3] was 24 ± 7 µM. For the same compound, the “HPLC and LC-MS of caffeoyl shikimate formed by plant microsomes” value in assay [4] was “both p-coumaroyl quinate and p-coumaroyl shikimate were hydroxylated to their caffeic counterparts”.
